Results published in patent US20250287955A1, “METHODS OF […] PLANT FROM INSECT PESTS” (NOVONESIS PLANT BIOSOLUTIONS A/S, priority 2018, published 2025).
Read-outs that look alike come from different tables or passages of the source.

Test system: 3rd instar cabbage looper
Test: cabbage leaf disc dip bioassay, mortality of cabbage looper
Assay type: in vivo
Method: An enzyme preparation, designated A, comprising an enzyme having lipase activity was diluted to 10% of the original concentration. 1 mL of the enzyme was added to 9 mL of phosphate buffered saline (PBS). The diluted enzyme was desalted using a desalting column from Sigma Aldrich. Each column having the capacity to desalt 2.5 mL of enzyme, 4 columns for the enzyme were used. Each column was equilibrated with 25 mL of PBS. 2.5 mL of sample was loaded into the column, the flow thru was discarded. 3.5 mL of PBS was added to elute the desalted enzyme. This flow thru was collected for use in the bioassay. 4.95 mL of the desalted enzyme was added to 99 mL PBS.
The chlorpyrifos insecticide (Sigma 45395) was prepared based on a stock solution of 10× (113 mg/L) using acetone. The insecticide was then diluted further using acetone to a 1:6 ratio.
Approximately 0.3 g of super absorbent granules were placed into 1.25 ounce cups and 6 mL of deionized water was added to hydrate the granules. Discs of green cabbage (2.8 cm) were cut with plastic tubing after the outer leaves had been removed. One disc was used for each individual insect. After cutting, leaf discs were rinsed in deionized water and spin dried in a small salad spinner to remove excess water.
Liquid treatments were poured into either 50 mL glass beakers for the insecticide or medium weigh boats for aqueous treatments and cabbage leaf discs were dipped in the treatment with disposable forceps, tilted to allow excess liquid to run off, and placed into cups with hydrated granules at an angle.
The cabbage leaf discs were dipped in either acetone (enzyme alone treatment) or chlorpyrifos at 18.83 mg/L of acetone. These were set to dry for 1 hr. The cabbage discs were then dipped either in phosphate buffer (chlorpyrifos alone treatments) or Enzyme A (enzyme alone or in combination with chlorpyrifos treatment), along with a 0.03% surfactant supplement.
After the cabbage discs had dried for 1 hr, a single 3rd instar cabbage looper was added to each individual cabbage disc in its cup and a paperboard lid was snapped into place. A total of 20 insects were evaluated for each treatment.
Experiment 2: This experiment was performed similar to Experiment 1, except the chemical insecticide was Clothianidin at 1:2, and the enzyme preparation, designated B, comprises an enzyme having glucosidase activity.
Experiment 3: This experiment was performed similar to Experiment 2, except the enzyme preparations, designated C and D, respectively, each comprises a different enzyme having protease activity.

SMILES	LT50 (95% confidence intervals) in days (Experiment 1, estimated time to kill 50% of the insects, Probit analysis, chlorpyrifos 18.83 mg/L, Enzyme A 0.05%, 20 insects per treatment)	mortality at 18.83 µg/mL (Trichoplusia ni, foliar, 168 h, read-out: % Mortality (7DAT), Experiment 1, Abbott's corrected, 7 days after treatment, chlorpyrifos 18.83 mg/L, Enzyme A 0.05%)	LT50 (95% confidence intervals) in days (Experiment 2, Probit analysis, clothianidin 30 mg/L)	LT50 (95% confidence intervals) (Experiment 3, Probit analysis, clothianidin 30 mg/L)	mortality (Trichoplusia ni, foliar, 120 h, Experiment 3, Abbott's corrected, 5 days after treatment, clothianidin 30 mg/L, read-out: % Mortality (5DAT))	mortality at 30 µg/mL (Trichoplusia ni, foliar, 144 h, Experiment 2, Abbott's corrected, 6 days after treatment, clothianidin 30 mg/L, read-out: % Mortality (6DAT))	mortality (Trichoplusia ni, foliar, 144 h, Experiment 3, Abbott's corrected, 6 days after treatment, clothianidin 30 mg/L, read-out: % Mortality (6DAT))	mortality (Trichoplusia ni, foliar, 168 h, Experiment 3, Abbott's corrected, 7 days after treatment, clothianidin 30 mg/L, read-out: % Mortality (7DAT))	mortality (Trichoplusia ni, foliar, 336 h, Experiment 3, Abbott's corrected, 14 days after treatment, clothianidin 30 mg/L, read-out: % Mortality (14DAT))	mortality (Trichoplusia ni, foliar, Experiment 3, Abbott's corrected, 8-11 days after treatment, clothianidin 30 mg/L, read-out: % Mortality (8-11DAT))	mortality (Trichoplusia ni, foliar, Experiment 3, Abbott's corrected, 12-13 days after treatment, clothianidin 30 mg/L, read-out: % Mortality (12-13DAT))
CCOP(=S)(OCC)Oc1nc(Cl)c(Cl)cc1Cl [Chlorpyrifos, chlorpyrifos]	11.11 (9.90-12.48) days	11%	–	–	–	–	–	–	–	–	–
CN/C(=N\[N+](=O)[O-])NCc1cnc(Cl)s1 [Clothianidin]	–	–	19.37 (16.23-23.38) days	12.34 days	15%	0%	20%	30%	45%	40%	45%
